Source: article PMC6688997 (Nature Communications, 2019)

Experiments:
Assay in all cases: Kinase assay, ATP Km
Type in all cases: biochemical
INSR = target: T1, INSR (Homo sapiens, UniProt P06213)
T1 construct: purchased Carna Biosciences

RSK3 = RSK3 (Homo sapiens, UniProt Q15349)
EPHB2 = EPHB2 (Homo sapiens, UniProt P29323)
AurA = AurA (Homo sapiens, UniProt O14965)
DYRK1A = DYRK1A (Homo sapiens, UniProt Q13627)
PDHK2 = PDHK2 (Homo sapiens, UniProt Q15119)
HIPK2 = target: T2, HIPK2 (Homo sapiens, UniProt Q9H2X6)
T2 construct: purchased Carna Biosciences
T2 sequence (Q9H2X6 whole entry): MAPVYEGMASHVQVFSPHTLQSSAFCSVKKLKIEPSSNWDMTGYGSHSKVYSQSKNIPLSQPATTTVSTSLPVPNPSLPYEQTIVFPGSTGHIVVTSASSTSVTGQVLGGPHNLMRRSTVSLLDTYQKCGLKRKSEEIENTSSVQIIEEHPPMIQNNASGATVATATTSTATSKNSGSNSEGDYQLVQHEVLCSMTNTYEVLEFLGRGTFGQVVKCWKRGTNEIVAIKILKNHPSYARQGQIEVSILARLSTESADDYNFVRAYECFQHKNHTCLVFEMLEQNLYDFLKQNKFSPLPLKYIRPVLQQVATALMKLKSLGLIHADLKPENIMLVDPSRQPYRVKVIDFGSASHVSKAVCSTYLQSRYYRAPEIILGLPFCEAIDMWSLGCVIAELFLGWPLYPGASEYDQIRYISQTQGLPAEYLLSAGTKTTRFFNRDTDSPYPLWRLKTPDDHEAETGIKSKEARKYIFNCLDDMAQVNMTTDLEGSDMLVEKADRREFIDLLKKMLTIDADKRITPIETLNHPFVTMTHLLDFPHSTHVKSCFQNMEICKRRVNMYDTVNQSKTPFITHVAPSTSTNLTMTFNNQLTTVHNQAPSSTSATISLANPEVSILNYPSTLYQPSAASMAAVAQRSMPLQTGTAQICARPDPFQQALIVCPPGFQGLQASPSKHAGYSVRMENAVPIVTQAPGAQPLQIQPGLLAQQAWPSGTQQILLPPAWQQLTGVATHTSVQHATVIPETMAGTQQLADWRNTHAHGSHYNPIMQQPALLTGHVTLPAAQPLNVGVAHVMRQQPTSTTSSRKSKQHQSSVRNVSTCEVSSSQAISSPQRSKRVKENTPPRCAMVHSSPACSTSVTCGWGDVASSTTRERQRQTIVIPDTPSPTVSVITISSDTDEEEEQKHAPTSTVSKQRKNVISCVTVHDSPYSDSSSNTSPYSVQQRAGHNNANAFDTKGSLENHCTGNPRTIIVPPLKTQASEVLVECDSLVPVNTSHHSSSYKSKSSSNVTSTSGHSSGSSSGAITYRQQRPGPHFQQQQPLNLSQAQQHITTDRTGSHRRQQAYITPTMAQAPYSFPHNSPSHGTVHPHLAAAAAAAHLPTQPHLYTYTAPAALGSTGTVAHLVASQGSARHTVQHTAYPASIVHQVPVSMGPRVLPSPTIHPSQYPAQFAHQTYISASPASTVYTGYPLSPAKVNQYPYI

RSK3, sequence (Q15349 whole entry): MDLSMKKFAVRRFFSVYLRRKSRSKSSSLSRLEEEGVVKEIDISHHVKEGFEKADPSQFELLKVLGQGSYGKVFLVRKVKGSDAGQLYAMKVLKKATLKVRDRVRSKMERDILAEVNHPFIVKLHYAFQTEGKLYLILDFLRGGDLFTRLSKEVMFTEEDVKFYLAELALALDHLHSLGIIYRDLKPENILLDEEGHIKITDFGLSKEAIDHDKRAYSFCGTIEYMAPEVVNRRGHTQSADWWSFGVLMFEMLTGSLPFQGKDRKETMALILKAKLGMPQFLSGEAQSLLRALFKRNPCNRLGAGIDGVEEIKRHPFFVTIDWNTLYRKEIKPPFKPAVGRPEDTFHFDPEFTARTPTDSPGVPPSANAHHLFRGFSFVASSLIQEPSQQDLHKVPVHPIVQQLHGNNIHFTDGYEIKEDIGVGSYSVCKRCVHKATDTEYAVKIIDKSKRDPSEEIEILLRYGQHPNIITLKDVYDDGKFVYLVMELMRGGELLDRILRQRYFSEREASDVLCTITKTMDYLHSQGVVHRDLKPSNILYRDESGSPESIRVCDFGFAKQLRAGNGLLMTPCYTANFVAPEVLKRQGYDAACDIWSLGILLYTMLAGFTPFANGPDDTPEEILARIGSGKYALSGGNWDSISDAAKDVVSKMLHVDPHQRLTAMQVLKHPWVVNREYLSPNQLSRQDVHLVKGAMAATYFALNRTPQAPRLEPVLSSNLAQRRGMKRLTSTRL
EPHB2, sequence (P29323 19-1055): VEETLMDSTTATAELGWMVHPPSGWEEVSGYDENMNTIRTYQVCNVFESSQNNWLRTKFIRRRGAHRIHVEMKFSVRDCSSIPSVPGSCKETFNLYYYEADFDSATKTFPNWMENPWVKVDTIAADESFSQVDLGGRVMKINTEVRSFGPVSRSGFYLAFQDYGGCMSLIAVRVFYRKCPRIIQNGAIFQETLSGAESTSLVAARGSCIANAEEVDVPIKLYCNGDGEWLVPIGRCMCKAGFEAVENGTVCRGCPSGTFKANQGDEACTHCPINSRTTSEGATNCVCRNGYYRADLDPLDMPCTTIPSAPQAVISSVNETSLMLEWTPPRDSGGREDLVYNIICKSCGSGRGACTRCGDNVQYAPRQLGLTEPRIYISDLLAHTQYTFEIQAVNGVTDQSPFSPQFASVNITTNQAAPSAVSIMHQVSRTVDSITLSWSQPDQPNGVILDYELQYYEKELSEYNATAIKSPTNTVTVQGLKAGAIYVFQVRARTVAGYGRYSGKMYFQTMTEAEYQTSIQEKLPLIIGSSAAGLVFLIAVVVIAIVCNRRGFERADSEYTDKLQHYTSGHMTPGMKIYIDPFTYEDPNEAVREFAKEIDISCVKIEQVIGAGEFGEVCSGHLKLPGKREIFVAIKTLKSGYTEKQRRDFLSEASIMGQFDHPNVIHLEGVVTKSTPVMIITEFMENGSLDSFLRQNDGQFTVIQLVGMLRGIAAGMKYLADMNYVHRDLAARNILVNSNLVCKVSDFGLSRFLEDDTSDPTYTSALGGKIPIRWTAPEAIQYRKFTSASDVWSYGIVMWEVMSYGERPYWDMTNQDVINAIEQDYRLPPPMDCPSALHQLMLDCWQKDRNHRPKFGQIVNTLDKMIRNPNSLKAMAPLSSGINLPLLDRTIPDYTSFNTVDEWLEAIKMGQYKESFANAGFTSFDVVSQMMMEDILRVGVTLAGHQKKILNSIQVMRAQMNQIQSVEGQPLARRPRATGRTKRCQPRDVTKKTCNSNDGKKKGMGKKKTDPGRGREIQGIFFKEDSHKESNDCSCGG
AurA, sequence (O14965 whole entry): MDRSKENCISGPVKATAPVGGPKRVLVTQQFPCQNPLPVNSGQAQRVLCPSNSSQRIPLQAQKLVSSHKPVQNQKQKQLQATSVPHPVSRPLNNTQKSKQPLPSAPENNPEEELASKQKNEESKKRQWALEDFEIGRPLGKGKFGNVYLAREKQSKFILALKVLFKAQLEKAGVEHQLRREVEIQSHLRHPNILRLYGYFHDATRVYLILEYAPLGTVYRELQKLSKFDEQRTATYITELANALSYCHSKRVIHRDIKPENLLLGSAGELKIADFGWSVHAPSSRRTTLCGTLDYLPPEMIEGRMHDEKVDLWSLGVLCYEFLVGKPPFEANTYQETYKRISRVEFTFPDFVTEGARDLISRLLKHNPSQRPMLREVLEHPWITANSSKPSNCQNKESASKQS
T1 sequence (P06213 28-1382): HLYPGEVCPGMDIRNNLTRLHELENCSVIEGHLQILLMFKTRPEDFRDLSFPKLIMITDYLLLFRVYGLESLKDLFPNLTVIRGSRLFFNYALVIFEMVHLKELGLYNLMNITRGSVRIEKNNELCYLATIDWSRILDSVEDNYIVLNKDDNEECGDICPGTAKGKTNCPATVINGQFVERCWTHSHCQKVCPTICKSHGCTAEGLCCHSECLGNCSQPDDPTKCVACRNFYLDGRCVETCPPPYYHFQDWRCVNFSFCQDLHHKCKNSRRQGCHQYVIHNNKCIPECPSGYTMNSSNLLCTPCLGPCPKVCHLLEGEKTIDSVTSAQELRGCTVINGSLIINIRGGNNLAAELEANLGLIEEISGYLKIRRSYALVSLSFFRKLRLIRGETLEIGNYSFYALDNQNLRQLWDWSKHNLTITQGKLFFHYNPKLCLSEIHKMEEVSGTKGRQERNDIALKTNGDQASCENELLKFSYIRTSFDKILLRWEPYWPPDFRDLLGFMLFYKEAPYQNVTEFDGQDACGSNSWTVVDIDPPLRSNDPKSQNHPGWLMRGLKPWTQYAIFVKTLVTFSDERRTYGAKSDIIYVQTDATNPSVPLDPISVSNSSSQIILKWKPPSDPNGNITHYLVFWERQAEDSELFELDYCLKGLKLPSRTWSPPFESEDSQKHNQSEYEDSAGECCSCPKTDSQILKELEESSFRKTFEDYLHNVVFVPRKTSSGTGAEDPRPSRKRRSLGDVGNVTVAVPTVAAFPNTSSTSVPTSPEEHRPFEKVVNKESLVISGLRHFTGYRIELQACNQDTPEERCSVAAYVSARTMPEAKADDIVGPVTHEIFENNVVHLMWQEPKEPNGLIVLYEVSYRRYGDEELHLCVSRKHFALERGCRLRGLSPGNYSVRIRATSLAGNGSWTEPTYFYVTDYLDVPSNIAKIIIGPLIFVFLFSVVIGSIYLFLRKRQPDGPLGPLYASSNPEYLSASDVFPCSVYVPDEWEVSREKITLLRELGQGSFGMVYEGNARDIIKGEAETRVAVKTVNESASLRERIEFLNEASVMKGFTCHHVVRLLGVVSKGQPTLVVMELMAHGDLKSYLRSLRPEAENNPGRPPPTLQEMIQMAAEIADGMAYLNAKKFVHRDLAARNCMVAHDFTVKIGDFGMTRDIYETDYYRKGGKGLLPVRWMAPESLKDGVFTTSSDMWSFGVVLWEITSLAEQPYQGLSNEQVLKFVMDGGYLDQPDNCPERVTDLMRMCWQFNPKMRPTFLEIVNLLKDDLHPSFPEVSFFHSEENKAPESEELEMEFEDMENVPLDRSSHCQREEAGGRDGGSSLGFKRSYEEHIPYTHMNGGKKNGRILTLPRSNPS

For `C[C@@H](N)COc1ccc(-c2cnc3ccc(N[C@H](C)c4cccc(F)c4)nn23)cc1.O=C(O)CCCCC(=O)O` [DS-6051b], the inhibition at 0.04 µM (INSR) was 69.3%, the inhibition at 0.04 µM (RSK3) was 35.6% and the inhibition at 0.04 µM (EPHB2) was 21.9%. It also gave an inhibition at 0.04 µM (AurA) of 8.5%, an inhibition at 0.04 µM (DYRK1A) of 6% and an inhibition at 0.04 µM (PDHK2) of 4.4%. The inhibition at 0.04 µM (HIPK2) was 3.5%.
